Among the data in patent publication US20260158009A1 (GENZYME CORPORATION, priority 2023, published 2026) are IC50 values, retold here.

For test [1], the target named is T1, hRIPK1 (aa 1-375) fusion protein (Homo sapiens, UniProt Q13546).
T1 construct: hRIPK1 (aa 1-375) fusion protein
T1 sequence (Q13546 1-375): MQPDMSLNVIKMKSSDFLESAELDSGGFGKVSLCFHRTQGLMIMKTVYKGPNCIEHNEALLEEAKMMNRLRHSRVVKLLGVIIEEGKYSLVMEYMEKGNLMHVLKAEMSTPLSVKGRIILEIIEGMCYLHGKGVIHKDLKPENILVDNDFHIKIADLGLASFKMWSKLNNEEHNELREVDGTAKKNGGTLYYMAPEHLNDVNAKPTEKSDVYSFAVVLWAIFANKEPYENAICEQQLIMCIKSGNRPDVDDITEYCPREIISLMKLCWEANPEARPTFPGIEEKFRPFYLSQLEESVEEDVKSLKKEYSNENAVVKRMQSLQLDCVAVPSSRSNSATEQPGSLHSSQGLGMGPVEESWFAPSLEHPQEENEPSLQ
Briefly: ADP-Glo kinase assay: catalytic activity of RIPK1 (autophosphorylation, conversion of ATP to ADP). The test is classed as biochemical. A digest of the protocol:
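hRIPK1 (aa 1-375) fusion protein (3.6 μg/ml final) was preincubated 30 min at rt with compound (33300-1.69 nM, 1% DMSO), then 50 μM ATP was added for 240 min at rt. ADP from autophosphorylation was measured by ADP-Glo luminescence and curves fitted by nonlinear regression.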
For orientation: ADP-Glo turns the ADP formed in a reaction into a luminescent signal.

The subject of the next test is U937 cells. Briefly: Cellular assay in U937 cells: activity of RIPK1 inhibitors on TNFα/zVAD.fmk-induced cell death (necroptosis), CellTiter 96 AQueous (MTS) readout. The test is classed as cell-based. The conditions noted are these: Homo sapiens, U-937. A digest of the protocol:
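Necroptosis was measured by viable-cell MTS reduction (4 h, absorbance 490 nm) after overnight (18–24 h) 37° C culture. Cell suspensions of U937 cells carried TNFα (100 ng/ml) plus zVAD.fmk (50 μM) before compound was added. A 10-point curve (10 μM–0.26 nM or 1 μM–0.07 nM) was run in duplicate, normalised to the control lacking TNFα/zVAD.fmk.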

In the case of `N#Cc1cc(F)cc([C@@H]2CCON2C(=O)[C@H]2CC[C@H](Cn3cnc4cc(F)c(C(N)=O)cc43)CC2)c1` [compound 70, trans-1-((4-((S)-3-(3-cyano-5-fluorophenyl)isoxazolidine-2-carbonyl)cyclohexyl)methyl)-5-fluoro-1H-benzo[d]imidazole-6-carboxamide], the IC50 came out at 0.044 µM in test [1] and 0.403 µM in the test on U937 cells.
As to `O=C([C@H]1C[C@H](Cn2cnc3cc(F)ccc32)C1)N1OCC[C@H]1c1cc(F)cc(F)c1` [compound 115, trans-((S)-3-(3,5-difluorophenyl)isoxazolidin-2-yl)(3-((5-fluoro-1H-benzo[d]imidazol-1-yl)methyl)cyclobutyl)methanone], the concentration for half-maximal inhibition (IC50) in test [1] stood at 0.031 µM; in the test with U937 cells, 0.138 µM.
`Cn1cc(C[C@H]2CC[C@H](C(=O)N3OCC[C@H]3c3cc(F)cc(F)c3)CC2)cn1` [compound 236, trans-[(3S)-3-(3,5-difluorophenyl)isoxazolidin-2-yl]-[4-[(1-methylpyrazol-4-yl)methyl]cyclohexyl]methanone]: the half-maximal inhibitory concentration (IC50) worked out at 0.02 µM in test [1] and 0.004 µM in the test with U937 cells.
Take `Cc1ccc(CC23CCC(C(=O)N4OCC[C@H]4c4cc(F)cc(F)c4)(CC2)CC3)cc1C(N)=O` [compound 273, 5-[[4-[(3S)-3-(3,5-difluorophenyl)-1,2-oxazolidine-2-carbonyl]-1-bicyclo[2.2.2]octanyl]methyl]-2-methylbenzamide]: the values for the concentration for half-maximal inhibition (IC50) (in test [1]; with U937 cells) were 0.015 µM and 0.009 µM, respectively.
The corresponding values for `N#Cc1cncc([C@@H]2CCON2C(=O)[C@H]2CC[C@H](Cn3ccc4cc(C(N)=O)ccc43)CC2)c1` [compound 252, trans-1-[[4-[(3S)-3-(5-cyano-3-pyridyl)isoxazolidine-2-carbonyl]cyclohexyl]methyl]indole-5-carboxamide] are 0.017 µM and 0.054 µM.
The like results for `Cc1ccc([C@@H]2CCON2C(=O)[C@H]2CC[C@H](Cc3ccc(C4(O)COC4)cc3)CC2)cn1` [compound 348, trans-5 [4-[[4-(3-hydroxyoxetan-3-yl)phenyl]methyl]cyclohexyl]-[(3S)-3-(6-methylpyridin-3-yl)-1,2-oxazolidin-2-yl]methanone] were, in that order, 0.037 µM and 0.105 µM.
For the compound `COc1cc(C[C@H]2CC[C@H](C(=O)N3OCC[C@H]3c3cnc(C)c(F)c3)CC2)cn2nc(C)nc12` [compound 342, trans-[(3S)-3-(5-fluoro-6-methylpyridin-3-yl)-1,2-oxazolidin-2-yl]-[4-[(8-methoxy-2-methyl-[1,2,4]triazolo[1,5-a]pyridin-6-yl)methyl]cyclohexyl]methanone], the IC50 was found to be 0.026 µM in test [1] and 0.008 µM in the test with U937 cells.
The like results for `Cc1ncn(C[C@H]2CC[C@H](C(=O)N3OCC[C@H]3c3cncc(F)c3)CC2)c1C#N` [compound 4, trans-1-((4-((S)-3-(5-fluoropyridin-3-yl)isoxazolidine-2-carbonyl)cyclohexyl)methyl)-4-methyl-1H-imidazole-5-carbonitrile] were, in that order, 0.116 µM and 0.721 µM.
The like results for `N#Cc1cc(F)cc([C@@H]2CCON2C(=O)[C@H]2CC[C@H](Cn3cnc4ccc(F)cc43)CC2)c1` [compound 112, trans-3-fluoro-5-((S)-2-(4-((6-fluoro-1H-benzo[d]imidazol-1-yl)methyl)cyclohexane-1-carbonyl)isoxazolidin-3-yl)benzonitrile] were, in that order, 0.023 µM and 0.007 µM.
In the case of `Cc1cn2nc(C[C@H]3CC[C@H](C(=O)N4OCC[C@H]4c4cc(F)cc(F)c4)CC3)cc(C)c2n1` [compound 291, trans-[(3S)-3-(3,5-difluorophenyl)isoxazolidin-2-yl]-[4-[(2,8-dimethylimidazo[1,2-b]pyridazin-6-yl)methyl]cyclohexyl]methanone], the 50% inhibitory concentration (IC50) came to 0.012 µM in test [1] and 0.001 µM with U937 cells.
The corresponding values for `Cc1nn(C[C@H]2CC[C@H](C(=O)N3OCC[C@H]3c3cc(F)cc(C#N)c3)CC2)c2ccccc12` [compound 61, trans-3-fluoro-5-((S)-2-(4-((3-methyl-1H-indazol-1-yl)methyl)cyclohexane-1-carbonyl)isoxazolidin-3-yl)benzonitrile] are 0.023 µM and 0.011 µM.
The corresponding values for `NC(=O)c1ccc2cnn(C[C@H]3CC[C@H](C(=O)N4OCC[C@H]4c4cnccn4)CC3)c2c1` [Compound 229, trans-1-[[4-[(3S)-3-pyrazin-2-ylisoxazolidine-2-carbonyl]cyclohexyl]methyl]indazole-6-carboxamide] are 0.025 µM and 0.078 µM.
The corresponding values for `Cc1ccc(CC23CCC(C(=O)N4OCC[C@H]4c4cc(F)cc(F)c4)(CC2)C3)cc1C(N)=O` [compound 269, 5-[[4-[(3S)-3-(3,5-difluorophenyl)isoxazolidine-2-carbonyl]norbornan-1-yl]methyl]-2-methyl-benzamide] are 0.013 µM and 0.028 µM.
`N#Cc1cc(F)cc([C@@H]2CCON2C(=O)[C@H]2CC[C@H](Cc3cc(F)cc(CCO)c3)CC2)c1` [compound 282, trans-3-fluoro-5-[(3S)-2-[4-[[3-fluoro-5-(2-hydroxyethyl)phenyl]methyl]cyclohexanecarbonyl]isoxazolidin-3-yl]benzonitrile]: the 50% inhibitory concentration (IC50) in test [1] was determined as 0.018 µM; with U937 cells, 0.01 µM.
The corresponding values for `Cc1ncc(C[C@H]2CC[C@H](C(=O)N3OCC[C@H]3c3cc(F)cc(C#N)c3)CC2)cn1` [compound 263, trans-3-fluoro-5-[(3S)-2-[4-[(2-methylpyrimidin-5-yl)methyl]cyclohexanecarbonyl]isoxazolidin-3-yl]benzonitrile] are 0.041 µM and 0.059 µM.
The like results for `Cc1cc(C)n(C[C@H]2CC[C@H](C(=O)N3OCC[C@H]3c3cc(F)cc(C#N)c3)CC2)n1` [compound 119, trans-3-((S)-2-(4-((3,5-dimethyl-1H-pyrazol-1-yl)methyl)cyclohexane-1-carbonyl)isoxazolidin-3-yl)-5-fluorobenzonitrile] were, in that order, 0.027 µM and 0.054 µM.
The like results for `Cc1ncn(C[C@H]2CC[C@H](C(=O)N3OCC[C@H]3c3cc(F)cc(C#N)c3)CC2)c1C#N` [compound 88, trans-1-((4-((S)-3-(3-cyano-5-fluorophenyl)isoxazolidine-2-carbonyl)cyclohexyl)methyl)-4-methyl-1H-imidazole-5-carbonitrile] were, in that order, 0.052 µM and 0.157 µM.
In the case of `O=C([C@H]1CC[C@H](Cn2cnc3ccccc32)CC1)N1OCC[C@H]1c1cc(F)cc(F)c1` [compound 8, trans-(4-((1H-benzo[d]imidazol-1-yl)methyl)cyclohexyl)((S)-3-(3,5-difluorophenyl)isoxazolidin-2-yl)methanone], the figures for the concentration for half-maximal inhibition (IC50) (in test [1]; in the test on U937 cells) were 0.019 µM and 0.006 µM, respectively.
With `Cn1nccc1C[C@H]1CC[C@H](C(=O)N2OCC[C@H]2c2ccc(F)c(F)c2)CC1` [compound 311, trans-[(3S)-3-(3,4-difluorophenyl)isoxazolidin-2-yl]-[4-[(2-methylpyrazol-3-yl)methyl]cyclohexyl]methanone], the figures for the IC50 (in test [1]; in the test on U937 cells) were 0.011 µM and 0.016 µM, respectively.
For the compound `CNC(=O)c1ccc(F)c(C[C@H]2CC[C@H](C(=O)N3OCC[C@H]3c3cnccn3)CC2)c1` [compound 175, trans-4-fluoro-N-methyl-3-[[4-[(3S)-3-pyrazin-2-ylisoxazolidine-2-carbonyl]cyclohexyl]methyl]benzamide], the concentration for half-maximal inhibition (IC50) in test [1] was 0.014 µM; in the test on U937 cells it was 0.007 µM.
In the case of `CNC(=O)c1cc(F)cc(C[C@H]2CC[C@H](C(=O)N3OCC[C@H]3c3cnccn3)CC2)c1` [compound 162, trans-3-fluoro-N-methyl-5-[[4-[(3S)-3-pyrazin-2-ylisoxazolidine-2-carbonyl]cyclohexyl]methyl]benzamide], the 50% inhibitory concentration (IC50) in test [1] was determined as 0.004 µM; in the test on U937 cells it was 0.015 µM.
Regarding `Cc1nn(C[C@H]2CC[C@H](C(=O)N3OCC[C@H]3c3cc(F)cc(C#N)c3)CC2)c2cc(F)c(C#N)cc12` [compound 69, trans-1-((4-((S)-3-(3-cyano-5-fluorophenyl)isoxazolidine-2-carbonyl)cyclohexyl)methyl)-6-fluoro-3-methyl-1H-indazole-5-carbonitrile], the IC50 was 0.022 µM in test [1] and 0.005 µM with U937 cells.
Turning to `Cc1ccc(C[C@H]2CC[C@H](C(=O)N3OCC[C@H]3c3cnccn3)CC2)cc1C#N` [compound 139, trans-2-methyl-5-[[4-[(3S)-3-pyrazin-2-ylisoxazolidine-2-carbonyl]cyclohexyl]methyl]benzonitrile], the IC50 in test [1] came to 0.01 µM; in the test with U937 cells it was 0.002 µM.
The corresponding values for `Cc1nc(C[C@H]2CC[C@H](C(=O)N3OCCC3c3cnc(C)c(F)c3)CC2)cs1` (some centres unmarked) [compound 360] are 0.02 µM and 0.007 µM.
The corresponding values for `Cc1cc([C@@H]2CCON2C(=O)[C@H]2CC[C@H](Cn3cnc4cc(C#N)c(F)cc43)CC2)co1` [compound 40, trans-6-fluoro-1-((4-((S)-3-(5-methylfuran-3-yl)isoxazolidine-2-carbonyl)cyclohexyl)methyl)-1H-benzo[d]imidazole-5-carbonitrile] are 0.041 µM and 0.059 µM.

As a reminder, the IC50 is the concentration at which inhibition is half-maximal. Low values mean greater potency, high ones weaker potency.
